Literature values, collected in patent US20250353873A1, “COMPOUNDS AND METHODS FOR MODULATING APOE EXPRESSION” (Ionis Pharmaceuticals, Inc., priority 2024, published 2025).
e = 2'-O-(2-methoxyethyl) (MOE); d = 2'-deoxy (DNA)

System: BJAB cells
Details: known behaviour in the assay; cited from earlier work

Compound No. 104838: 5-10-5 MOE gapmer, GCTGATTAGAGAGAGGTCCC, internal standard (negative control) (sugars from the 5' end e5 d10 e5, backbone and methylation of C not given here)
responder class for CCL22 release in the BJAB assay (internal standard): non-responder (non-inflammatory)

Compound No. 353512: 3-14-3 MOE gapmer, TCCCATTTCAGGAGACCTGG, internal standard (sugars from the 5' end e3 d14 e3, backbone and methylation of C not given here)
responder class for CCL22 release in the BJAB assay (internal standard): high responder (inflammatory)
